Experimental data reported in patent US20140121235A1, “Method for Treating S6K-Overexpressing Cancers” (Rush University Medical Center, priority 2012, published 2014).

What was measured:
[1] = rheumatoid arthritis patients treated with leflunomide 20 mg/day; cited from earlier work
A375 cells = experiment: Cell cycle analysis (propidium iodine, flow cytometer); format: cell-based; details: A375 cells, A77 1726 at 50 μM, 24 hr
Experimental: (A) Ability of uridine to relieve the cell cycle arrest in the S phase. A375 cells grown in 6-well plates were treated with the indicated concentration of A771726 with or without uridine (200 μM) for 24 hr. Cell cycle was analyzed in a flow cytometer as described in Materials and Methods. (B) Effect of the MAP kinase pathway inhibitors on A77 1726-mediated cell cycle arrest in the S phase. A375 cells were treated with A771726 (100 μM) in the absence or presence of 0.1% DMSO, […] (1 μM), U0126 (10 μM), PD98059 (10 for 24 hr. Single cell suspensions were prepared and analyzed for cell cycle in a flow cytometer. (C) Effect of the PI-3 kinase pathway inhibitors and their effect on A77 1726-mediated cell cycle arrest. A375 cells were treated with A77 1726 (100 μM), rapamycin (20 nM), and/or LY294002 (10 μM). After incubation for 24 hr, cells were harvested and analyzed for cell cycle progress.
Cells were grown in complete RPMI1640 medium with 10% fetal bovine serum in 6-well plates. Upon 60% confluence, the cells were treated with vehicle or with indicated concentrations of A77 1726 or various inhibitors as indicated for 24 hr. Cells were pulsed with 10 μM BrdU for 2 hr. Cells were harvested, denatured with 2N HCl for 5 min at room temperature followed by neutralization with 0.1M borate buffer (pH 8.5). After washing and blocking with normal mouse serum, the cells were stained with an Alexa Fluor 488-conjugated anti-BrdU monoclonal antibody (BD Bioscience), followed by analysis in a flow cytometer. Alexa Fluor 488-conjugated mouse IgG was included as a control. For cell cycle analysis, the cells were harvested and fixed with 2 ml cold 70% ethanol in PBS overnight at 4° C. Fixed cells were then washed 3 times with PBS, treated with RNaseA (100 μg/ml in 0.5 ml PBS). After incubation at room temperature for 30 min, cells were stained with 2.5 μl propidium iodine (10 mg/ml.) and immediately analyzed for DNA content in a flow cytometer.

[2] = tested on: carbomoyl-phosphate synthetase 2 (CAD) Ser-1859 phosphorylation; experiment: CAD phosphorylation in A375 cells (phosphor-specific antibody); format: cell-based; details: A375 cells, 0, 50, 100 or 200 μM for 2 hours
Experimental: FIG. 12 illustrates inhibition of carbamoyl-phosphate synthetase 2 (CAD) by A 77 1726.
The ability of […] to inhibit phosphorylation of CAD at the Ser-1859 site was tested. A375 melanoma tumor cell line cultures were pretreated with the 0, 50, 100 or 200 μM A 771726 for 2 hours. Total cell lysates were prepared and analyzed for the phosphorylation of CAD by a phosphor-specific antibody.

MCF-7 cells = experiment: Western blot of protein phosphorylation in MCF-7 cells; format: cell-based
Experimental: (A) A77 1726 induces MAP kinase activation in A375 cells cultured in 10% fetal bovine serum. A375 cells were seeded in a 6-well plate overnight and then stimulated with various concentrations of A77 1726 or PLX 4720 (1 μM) for 2 hr. Cells were harvested and analyzed for MAP kinase activation by anti-phospho-ERK1/2 antibody. The membrane was stripped and re-probed with anti-ERK1/2 antibody. (B) Lack of the feedback activation of the MAP and PI-3 kinase pathways in BT-20 cells. BT20 cells seeded in 6-well plates were starved in DMEM medium containing 05% EBS for 2 hr and treated with A77 1726 (0, 50 or 100 μM), Cells were harvested and analyzed for protein phosphorylation by specific antibodies as indicated. Protein loading was monitored by stripping membrane and re-probing with antibodies against non-phosphorylated proteins. (C) Strong feedback activation of the PI-3 kinase pathway and weak feedback activation of the MAP kinase pathway in MCF-7 cells by A77 1726 and rapamycin. […] Cells were harvested and analyzed for protein phosphorylation with the indicated antibodies. […] Cells were harvested and analyzed for protein phosphorylation by specific antibodies as indicated. Protein loading was monitored by stripping membrane and re-probing with antibodies against nonphosphorylated proteins. […]

[3] = cited from earlier work
[4] = mice, single dose of 35 mg/kg of leflunomide

## C/C(O)=C(\C#N)C(=O)Nc1ccc(C(F)(F)F)cc1 [A77 1726]
[1]
  plasma concentration of A77 1726: ≤ 200 µM
A375 cells
  effect on cell cycle: sufficient to arrest cell cycle in the S phase
[2]
  effect on CAD phosphorylation at Ser-1859: inhibited phosphorylation in a dose-dependent manner
MCF-7 cells
  effect on ERK phosphorylation: slightly induced
  effect on S6^S235/236 phosphorylation: Inhibition
[3]; mice treated with leflunomide at a dose of 35 mg
  serum half-life of A77 1726: 15 h
[3]; mice, 24 hr after single dose of 35 mg/kg of leflunomide
  serum concentration of A77 1726 at 24 hr: 250 µM
[3]; [4]
  peak serum concentration of A77 1726: 500 µM
  time to peak concentration of A77 1726: ≤ 4 h
